Measurements: ChEMBL document CHEMBL5543131, “Discovery of Highly Potent Solute Carrier 13 Member 5 (SLC13A5) Inhibitors for the Treatment of Hyperlipidemia” (J Med Chem, 2024)
Active and inactive are the calls of the source.

Assays:
HepG2 [1] = test: Lipid lowering effect on PCN-induced lipid accumulation in human HepG2 cells assessed as decrease in intracellular total cholesterol level; type: functional, cell-based; conditions: dose 3-30 µM
Hepatocyte [2] = test: Lipid lowering effect on PCN-induced lipid accumulation in mouse Primary hepatocyte assessed as decrease in intracellular triglyceride level; type: functional, cell-based; conditions: dose 3-30 µM
Mus musculus [3] = test: Lipid lowering activity in PCN-induced hyperlipidemic male C57BL/6J mouse model assessed as decrease in liver triglyceride level at 10 to 30 mg/kg, IG preadministered with compound for 15 to 30 mins followed by PCN administration and measured after 7 days; type: functional, organism-based; conditions: dose 10-30 mg/kg, time 15-10110 min
Mus musculus [4] = test: In vivo inhibition of SLC13A5 in starvation-induced hyperlipidemic male C57BL/6J mouse model assessed as decrease in liver citrate level at 30 mg/kg, ip starved for 48 hrs followed by compound administration and measured after 2 hrs; type: functional, organism-based
Hepatocyte [5] = test: Lipid lowering effect on PCN-induced lipid accumulation in mouse Primary hepatocyte assessed as decrease in HMGCR mRNA expression level at 3 to 30 uM by RT-qPCR analysis; type: functional, cell-based; conditions: dose 3-30 µM
AML12 [6] = test: Lipid lowering effect on PCN-induced lipid accumulation in mouse AML12 cells assessed as decrease in ACC1 mRNA expression level at 3 to 30 uM preincubated with compound for 30 mins followed by PCN addition and measured after 24 hrs by RT-qPCR analysis; type: functional, cell-based; conditions: dose 3-30 µM, time 24.5 hrs
AML12 [7] = test: Effect on lipid accumulation in oleic and palmitic acid induced mouse AML12 cells assessed as decrease in total cholesterol level; type: functional, cell-based; conditions: dose 3-30 µM
Mus musculus [8] = test: Lipid lowering activity in starvation-induced hyperlipidemic male C57BL/6J mouse model assessed as decrease in number of lipid droplets in liver starved for 48 hrs followed by intraperitoneal administration of compound and measured after 2 hrs by Hematoxylin and eosin staining based analysis; type: functional, organism-based; conditions: dose 10-30 mg/kg, route ip
AML12 [9] = test: Effect on lipid accumulation in oleic and palmitic acid induced mouse AML12 cells assessed as decrease in triglyceride level; type: functional, cell-based; conditions: dose 3-30 µM
AML12 [10] = test: Lipid lowering effect on PCN-induced lipid accumulation in mouse AML12 cells assessed as decrease in total cholesterol level preincubated with compound for 30 mins followed by PCN addition and measured after 24 hrs; type: functional, cell-based; conditions: dose 3-30 µM, time 24.5 hrs
HepG2 [11] = test: Lipid lowering effect on PCN-induced lipid accumulation in human HepG2 cells assessed as decrease in ACC1 mRNA expression level at 3 to 30 uM by RT-qPCR analysis; type: functional, cell-based; conditions: dose 3-30 µM
Hepatocyte [12] = test: Lipid lowering effect on PCN-induced lipid accumulation in mouse Primary hepatocyte assessed as decrease in intracellular total cholesterol level; type: functional, cell-based; conditions: dose 3-30 µM
Mus musculus [13] = test: Lipid lowering activity in starvation-induced hyperlipidemic male C57BL/6J mouse model assessed as decrease in triglyceride level in liver at 10 to 30 mg/kg, ip starved for 48 hrs followed by compound administration and measured after 2 hrs; type: functional, organism-based; conditions: dose 10-30 mg/kg
[14] = biological target: T1, Solute carrier family 13 member 2 (Homo sapiens) (UniProt Q13183); test: Inhibition of NaDC1 (unknown origin) citrate transport activity
T1 sequence (whole entry): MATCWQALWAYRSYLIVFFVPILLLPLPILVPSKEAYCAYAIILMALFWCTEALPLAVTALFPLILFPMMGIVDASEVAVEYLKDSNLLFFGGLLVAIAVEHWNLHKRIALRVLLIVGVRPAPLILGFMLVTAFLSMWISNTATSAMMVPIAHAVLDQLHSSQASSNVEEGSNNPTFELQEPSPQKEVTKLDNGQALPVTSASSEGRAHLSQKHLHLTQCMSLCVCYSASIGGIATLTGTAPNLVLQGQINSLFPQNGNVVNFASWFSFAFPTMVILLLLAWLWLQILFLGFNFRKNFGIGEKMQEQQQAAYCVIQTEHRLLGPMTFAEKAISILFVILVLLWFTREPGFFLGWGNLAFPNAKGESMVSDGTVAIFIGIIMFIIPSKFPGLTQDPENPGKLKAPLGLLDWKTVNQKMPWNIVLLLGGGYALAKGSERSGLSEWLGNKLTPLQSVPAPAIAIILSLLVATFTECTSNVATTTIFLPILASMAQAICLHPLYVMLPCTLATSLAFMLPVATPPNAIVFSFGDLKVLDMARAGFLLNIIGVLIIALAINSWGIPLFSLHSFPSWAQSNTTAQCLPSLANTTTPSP

AML12 [15] = test: Lipid lowering effect on PCN-induced lipid accumulation in mouse AML12 cells assessed as decrease in HMGCR mRNA expression level at 3 to 30 uM preincubated with compound for 30 mins followed by PCN addition and measured after 24 hrs by RT-qPCR analysis; type: functional, cell-based; conditions: dose 3-30 µM, time 24.5 hrs
Mus musculus [16] = test: Lipid lowering activity in starvation-induced hyperlipidemic male C57BL/6J mouse model assessed as decrease in LDL to HDL cholesterol ratio at 10 to 30 mg/kg, po starved for 48 hrs followed by compound administration and measured after 2 hrs; type: functional, organism-based; conditions: dose 10-30 mg/kg
Mus musculus [17] = test: Lipid lowering activity in PCN-induced hyperlipidemic male C57BL/6J mouse model assessed as decrease in plasma total cholesterol level at 10 to 30 mg/kg, IG preadministered with compound for 15 to 30 mins followed by PCN administration and measured after 7 days; type: functional, organism-based; conditions: dose 10-30 mg/kg, time 15-10110 min
Mus musculus [18] = test: Lipid lowering activity in PCN-induced hyperlipidemic male C57BL/6J mouse model assessed as decrease in plasma triglyceride level at 10 to 30 mg/kg, IG preadministered with compound for 15 to 30 mins followed by PCN administration and measured after 7 days; type: functional, organism-based; conditions: dose 10-30 mg/kg, time 15-10110 min
Mus musculus [19] = test: Effect on SLC13A5 mRNA expression in PCN-induced hyperlipidemic male C57BL/6J mouse model at 10 to 30 mg/kg, IG preadministered with compound for 15 to 30 mins followed by PCN administration and measured after 7 days by RT-qPCR analysis; type: functional, organism-based; conditions: dose 10-30 mg/kg, time 15-10110 min
AML12 [20] = test: Effect on SCL13A5 mRNA expression in PCN-induced mouse AML12 cells at 3 to 30 uM preincubated with compound for 30 mins followed by PCN addition and measured after 24 hrs by RT-qPCR analysis; type: functional, cell-based; conditions: dose 3-30 µM, time 24.5 hrs
HepG2 [21] = test: Lipid lowering effect on PCN-induced lipid accumulation in human HepG2 cells assessed as decrease in ACLY mRNA expression level at 3 to 30 uM by RT-qPCR analysis; type: functional, cell-based; conditions: dose 3-30 µM
Mus musculus [22] = test: Lipid lowering activity in starvation-induced hyperlipidemic male C57BL/6J mouse model assessed as downregulation of ACLY gene expression level starved for 48 hrs followed by oral administration of compound and measured after 2 hrs by RT-qPCR analysis; type: functional, organism-based; conditions: dose 10-30 mg/kg
Mus musculus [23] = test: Lipid lowering activity in starvation-induced hyperlipidemic male C57BL/6J mouse model assessed as downregulation of ACC1 gene expression level starved for 48 hrs followed by oral administration of compound and measured after 2 hrs by RT-qPCR analysis; type: functional, organism-based; conditions: dose 10-30 mg/kg
HepG2 [24] = test: Lipid lowering effect on oleic and palmitic acid induced lipid accumulation in human HepG2 cells assessed as decrease in intracellular triglyceride level; type: functional, cell-based; conditions: dose 3-30 µM
Hepatocyte [25] = test: Lipid lowering effect on PCN-induced lipid accumulation in mouse Primary hepatocyte assessed as decrease in FASN mRNA expression level at 3 to 30 uM by RT-qPCR analysis; type: functional, cell-based; conditions: dose 3-30 µM
Hepatocyte [26] = test: Lipid lowering effect on PCN-induced lipid accumulation in mouse Primary hepatocyte assessed as decrease in ACLY mRNA expression level at 3 to 30 uM by RT-qPCR analysis; type: functional, cell-based; conditions: dose 3-30 µM

O=C(O)CC(O)(CCc1ccc(-c2ccccc2)cc1)C(=O)O (stereo unspecified)
inactive: inhibition [14] | Activity (Mus musculus [19]) | Activity (AML12 [20])
active: Activity (HepG2 [1]) Dose-Dependent Effect | Activity (Hepatocyte [2]) Dose-Dependent Effect | Activity (Mus musculus [3]) | inhibition (Mus musculus [4]) | Activity (Hepatocyte [5]) | Activity (AML12 [6]) | Activity (AML12 [7]) Dose-Dependent Effect | Activity (Mus musculus [8]) Dose-Dependent Effect | Activity (AML12 [9]) Dose-Dependent Effect | Activity (AML12 [10]) Dose-Dependent Effect | Activity (HepG2 [11]) | Activity (Hepatocyte [12]) Dose-Dependent Effect | Activity (Mus musculus [13]) | Activity (AML12 [15]) | Activity (Mus musculus [16]) | Activity (Mus musculus [17]) | Activity (Mus musculus [18]) | Activity (HepG2 [21]) | Activity (Mus musculus [22]) Dose-Dependent Effect | Activity (Mus musculus [23]) Dose-Dependent Effect | Activity (HepG2 [24]) Dose-Dependent Effect | Activity (Hepatocyte [25]) | Activity (Hepatocyte [26])
